Test results: patent US11419335B2, “N-arylated analogues and uses thereof” (University of Florida Research Foundation, Incorporated, priority 2016, dated 2022)
Like-named read-outs stand apart in the source and are kept apart here. Marks after values point to notes of the source that are not given here.

Assays:
[1] = test system: methicillin-resistant Staphylococcus aureus MRSA-2 (clinical isolate); test: MIC broth microdilution, MRSA-2; type: cell-based; conditions: for MIC MRSA-2: Table 4
Procedure: (§1) The minimum inhibitory concentration (MIC) for each tested compound was determined by the broth microdilution method as recommended by the Clinical and Laboratory Standards Institute (CLSI). In a 96-well plate, eleven two-fold serial dilutions of each compound were made in a final volume of 100 μL Luria Broth. Each well was inoculated with ˜10^5 bacterial cells at the initial time of incubation, prepared from a fresh log phase culture (OD600 of 0.5 to 1.0 depending on bacterial strain). The MIC was defined as the lowest concentration of compound that prevented bacterial growth after incubating 16 to 18 hours at 37° C. (MIC values were supported by spectrophotometric readings at OD600). DMSO served as our vehicle and negative control in each microdilution MIC assay. DMSO was serially diluted with a top concentration of 1% v/v.
as §1, with “for each compound was” for “for each tested compound was”, “Standards Institute (CLSI).^6 In a” for “Standards Institute (CLSI). In a”, “concentration of test compound that” for “concentration of compound that”, “37° C. The concentration range tested for each compound during this study was 0.10 to 100 μM. DMSO served” for “37° C. (MIC values were supported by spectrophotometric readings at OD600). DMSO served”, “1% v/v. All MIC values were obtained from a minimum of three independent experiments.” for “1% v/v.”

MRSA BAA-1707 = test: MIC broth microdilution, MRSA BAA-1707; type: cell-based, Staphylococcus aureus; conditions: for MIC MRSA 1707: Table 4
Procedure: as §1, with “The MIC was defined as the lowest concentration of compound that prevented bacterial growth after incubating 16 to 18 hours at 37° C.” left out
Each well was inoculated with ˜10^5 bacterial cells at the initial time of incubation, prepared from a fresh log phase culture (OD600 of 0.5 to 1.0 depending on bacterial strain). […] The concentration range tested for each compound during this study was 0.10 to 100 μM. DMSO served as our vehicle and negative control in each microdilution MIC assay. DMSO was serially diluted with a top concentration of 1% v/v. All MIC values were obtained from a minimum of three independent experiments.

[2] = test system: methicillin-resistant Staphylococcus epidermidis (MRSE strain ATCC 35984); test: MIC broth microdilution, MRSE 35984; type: cell-based; conditions: for MIC MRSE 35984: Table 4
Procedure: as §1
as §1, with “for each compound was” for “for each tested compound was”, “Standards Institute (CLSI).^6 In a” for “Standards Institute (CLSI). In a”, “concentration of test compound that” for “concentration of compound that”, “37° C. The concentration range tested for each compound during this study was 0.10 to 100 μM. DMSO served” for “37° C. (MIC values were supported by spectrophotometric readings at OD600). DMSO served”, “1% v/v. All MIC values were obtained from a minimum of three independent experiments.” for “1% v/v.”

[3] = test system: vancomycin-resistant Enterococcus faecium (VRE strain ATCC 700221); test: MIC broth microdilution, VRE 700221; type: cell-based; conditions: for MIC VRE 700221: Table 4
Procedure: as §1
as §1, with “for each compound was” for “for each tested compound was”, “Standards Institute (CLSI).^6 In a” for “Standards Institute (CLSI). In a”, “concentration of test compound that” for “concentration of compound that”, “37° C. The concentration range tested for each compound during this study was 0.10 to 100 μM. DMSO served” for “37° C. (MIC values were supported by spectrophotometric readings at OD600). DMSO served”, “1% v/v. All MIC values were obtained from a minimum of three independent experiments.” for “1% v/v.”

[4] = test system: Acinetobacter baumannii (ATCC 1794); test: MIC broth microdilution, A. baumannii 1794; type: cell-based; conditions: for MIC A. bau. 1794: Table 4
Procedure: as §1
as §1, with “for each compound was” for “for each tested compound was”, “Standards Institute (CLSI).^6 In a” for “Standards Institute (CLSI). In a”, “concentration of test compound that” for “concentration of compound that”, “37° C. The concentration range tested for each compound during this study was 0.10 to 100 μM. DMSO served” for “37° C. (MIC values were supported by spectrophotometric readings at OD600). DMSO served”, “1% v/v. All MIC values were obtained from a minimum of three independent experiments.” for “1% v/v.”

[5] = test system: Pseudomonas aeruginosa (PAO1); test: MIC broth microdilution, PAO1; type: cell-based; conditions: for MIC PAO1: Table 4
Procedure: as §1
as §1, with “for each compound was” for “for each tested compound was”, “Standards Institute (CLSI).^6 In a” for “Standards Institute (CLSI). In a”, “concentration of test compound that” for “concentration of compound that”, “37° C. The concentration range tested for each compound during this study was 0.10 to 100 μM. DMSO served” for “37° C. (MIC values were supported by spectrophotometric readings at OD600). DMSO served”, “1% v/v. All MIC values were obtained from a minimum of three independent experiments.” for “1% v/v.”

[6] = test system: Klebsiella pneumoniae (ATCC 13883); test: MIC broth microdilution, K. pneumoniae 13883; type: cell-based; conditions: for MIC K. pneu. 13883: Table 4
Procedure: as §1
as §1, with “for each compound was” for “for each tested compound was”, “Standards Institute (CLSI).^6 In a” for “Standards Institute (CLSI). In a”, “concentration of test compound that” for “concentration of compound that”, “37° C. The concentration range tested for each compound during this study was 0.10 to 100 μM. DMSO served” for “37° C. (MIC values were supported by spectrophotometric readings at OD600). DMSO served”, “1% v/v. All MIC values were obtained from a minimum of three independent experiments.” for “1% v/v.”

[7] = test system: Escherichia coli clinical isolate (UAEC-1); test: MIC broth microdilution, UAEC-1; type: cell-based; conditions: for MIC UAEC-1: Table 4
Procedure: as §1
as §1, with “for each compound was” for “for each tested compound was”, “Standards Institute (CLSI).^6 In a” for “Standards Institute (CLSI). In a”, “concentration of test compound that” for “concentration of compound that”, “37° C. The concentration range tested for each compound during this study was 0.10 to 100 μM. DMSO served” for “37° C. (MIC values were supported by spectrophotometric readings at OD600). DMSO served”, “1% v/v. All MIC values were obtained from a minimum of three independent experiments.” for “1% v/v.”

[8] = test system: human red blood cells (hRBC); test: Hemolysis of red blood cells; type: cell-based
Procedure: The washing was repeated three times with the buffer. In a 96-well plate, test compounds were added to the buffer from DMSO stocks. […] The plate was then incubated for 1 hour at 37° C. After incubation, the plate was centrifuged for 5 minutes at 3,500 rpm. Then 80 μL of the supernatant was transferred to another 96-well plate and the optical density (OD) was read at 405 nm. DMSO served as our negative control (0% hemolysis) while Triton X served as our positive control (100% hemolysis). […] All reported data correspond to three independent experiments. Ten-point dose-response curves were generated in 96-well plates to determine 50% hemolysis (HC50 values) of red blood cells.
The washing was repeated three times with the buffer. In 96-well plate, the test compounds were added to the buffer. Then 50 μL of 2% of hRBCs in the buffer were added to the test plate to make the final concentrations ranging from 0.2 to 200 μM of each test compound. The plate was then incubated for 1 hour at 37° C. After incubation, the plate was centrifuged for 5 minutes at 3500 rpm and then 80 μL of the supernatant was transferred to another 96-well plate and the Optical Density (OD) was read at 405 nm. DMSO served as our negative control (0% haemolysis) and Triton X served as our positive control (100% haemolysis). The HC50 (concentration of test compound required to lyse red blood cells by 50%) was calculated by plotting the dose-response curve (not shown) with Graphpad Prism 6.0. All data were obtained from three independent haemolysis experiments.

MRSA BAA-1707 biofilms = test: Calgary Biofilm Device assay (MBC/MBEC), MRSA BAA-1707; type: cell-based, Staphylococcus aureus; conditions: Table 2, CBD assay
Procedure: (§2) The lid of the Calgary device was then removed, washed and transferred to another 96-well plate containing 2-fold serial dilutions of the test compounds (the “challenge plate”). The total volume of media with compound in each well in the challenge plate is 150 μL. […] The lid was then removed from the challenge plate and MBC/MBEC values were determined using different final assays. […] The MBC values were determined as the concentration giving a lack of visible bacterial growth (i.e., turbidity). […] In select experiments, pegs from the Calgary device were removed from lead biofilm eradicators after final incubation, sonicated for 30 minutes in PBS and plated out to determine biofilm cell killing of lead biofilm-eradicating agents (i.e., colony forming unit per milliliter, CFU/mL).
(§3) Using a Calgary Biofilm Device, bacterial biofilms are established on pegs suspended to the bottom of a 96-well plate lid. Following biofilm establishment on lid pegs, lids are then transferred to new 96-well plates containing serial dilutions of test compound and allowed to incubate. After compound treatment, 96-well plate lids with pegs are once again transferred to 96-well plates containing fresh media. During this final phase of the assay, viable biofilms will grow and disperse planktonic cells into the media where they will grow and give a turbid well result. Conversely, wells that have no growth are a result of pegs that had eradicated bacterial biofilms. The lowest concentration at which no turbidity is observed is the minimum biofilm eradication concentration (MBEC). Using the Calgary Biofilm Device, both minimum biofilm eradication concentrations and minimum bactericidal concentrations (MBC) for planktonic bacterial can be determined using one assay from a single bacterial culture (FIG. 3A).

MRSE ATCC 35984 biofilms = test: Calgary Biofilm Device assay (MBC/MBEC), MRSE 35984; type: cell-based, Staphylococcus epidermidis; conditions: Table 2, CBD assay
Procedure: as §2, §3

VRE ATCC 700221 biofilms = test: Calgary Biofilm Device assay (MBC/MBEC), VRE 700221; type: cell-based, Enterococcus faecium; conditions: Table 2, CBD assay
Procedure: as §2, §3

CCCCCCCCCCCCCCCCn1cc[n+](Cc2ccccc2C[n+]2ccn(CCCCCCCCCCCCCCCC)c2C)c1C.[Br-].[Br-] [Compound 29]
MIC MRSA-2 [1]: >100 µM
MIC MRSA 1707 (MRSA BAA-1707): >100 µM
MIC MRSE 35984 [2]: >100 µM
MIC VRE 700221 [3]: >100 µM
MIC A. bau. 1794 [4]: >100 µM
MIC PAO1 [5]: >100 µM
MIC K. pneu. 13883 [6]: >100 µM
MIC UAEC-1 [7]: >100 µM
RBC HC50 ([8]; Table 4, concentration required to lyse 50% of red blood cells): 34.5 µM

CCCCCCCCCCCC[N+](C)(C)Cc1ccccc1.[Cl-] [BAC-12, reference compound]
MIC ([1]; MRSA-2 and MRSA BAA-1707, read-out: MIC against two MRSA strains): 6.25 µM
MIC ([1]; Table 1, read-out: MIC MRSA-2): 6.25 µM
MIC MRSA-2 [1]: 6.25 µM
MIC (MRSA BAA-1707; Table 1, read-out: MIC MRSA BAA-1707): 6.25 µM
MIC (MRSA BAA-1707; Table 2, read-out: MRSA BAA-1707 MIC): 6.25 µM
MIC MRSA 1707 (MRSA BAA-1707): 6.25 µM
MIC ([2]; Table 1, read-out: MIC MRSE 35984): 3.13 µM
MIC ([2]; Table 2, read-out: MRSE 35984 MIC): 3.13 µM
MIC MRSE 35984 [2]: 3.13 µM
MIC ([3]; Table 1, read-out: MIC VRE 700221): 25 µM
MIC ([3]; Table 2, read-out: VRE 700221 MIC): 25 µM
MIC VRE 700221 [3]: 25 µM
MIC A. baumannii 1794 ([4]; Table 1): 75^a μM
MIC A. bau. 1794 [4]: 75a micromolar
MIC ([5]; Table 1): >100 µM
MIC PAO1 [5]: >100 µM
MIC K. pneumoniae 13883 ([6]; Table 1): 75^a μM
MIC K. pneu. 13883 [6]: 75a micromolar
MIC ([7]; Table 1): 50 µM
MIC UAEC-1 [7]: 50 µM
HC50 [8]: > 100 µM
MRSA BAA-1707 MBEC (MRSA BAA-1707 biofilms; biofilm): > 1000 µM
MBC (MRSA BAA-1707 biofilms; planktonic cells): 15.6 µM
MRSE 35984 MBEC (MRSE ATCC 35984 biofilms; biofilm): > 2000 µM
MBC (MRSE ATCC 35984 biofilms; planktonic cells): 11.7 µM
VRE 700221 MBEC (VRE ATCC 700221 biofilms; biofilm): 23.5 µM
MBC (VRE ATCC 700221 biofilms; planktonic cells): 31.3 µM
